Source: US12178838B2, “Synthetic neuromodulatory peptides” (Lactocore, Inc., priority 2019, dated 2024)

Tests used:
Type in all cases: in vivo
zebrafish (Danio rerio) [1] = assay: Open Field test in zebrafish; details: ip
Experimental: (§1) The tested substances were injected into the zebrafish intraperitoneally (ip) using an insulin syringe (0.5 ml, 30 g) 10 minutes before the test. The saline solution (0.9% NaCl) was used as a solvent. Anesthesia and immobilization of the animals were achieved by placing them in water at a temperature of 10° C. Control group fish received intraperitoneal injections of an equivalent volume of solvent, also after going through a pre-cooling procedure.
(§2) A base, back, and side walls of the aquarium were made of matte black plastic; the front panel (shorter wall) was made of transparent Plexiglas. The setup for the Light/Dark preference test consisted of three main parts: a launch compartment, a light compartment made of white plastic, and a dark compartment made of black plastic. The bright lighting in these tests was provided by a lamp on a stand (LED lamp PL, 11 W, light flux≈600 Lm, about 500 Lx directly above the water surface), which was attached to the upper part of the aquarium.
The open field test was performed as described in Maximino et al., 2013. A video recording (background shooting) was started 20-30 seconds before the zebrafish were placed in the test aquarium. The experimental zebrafish was placed in an open field (“OF”) aquarium using a net. The recording was being conducted for five minutes. The test was carried out using EthoVision XT software package (Noldus). The software registered the distance covered by the animal, its speed, the number of visits to the three conventional zones of the aquarium: “bottom,” “center,” and […] (lower, middle, and upper thirds of the aquarium, respectively), the time spent in these zones, and the latency of a visit to the middle and to the surface of the aquarium.

[2] = test system: Wistar rats after chronic unpredictable mild stress; assay: CUMS model: Social Interaction test; details: FQSE 0.5 mg/kg i.n.; diazepam 0.5 mg/kg i.p.; 4 injections; vs control non-stressed rats
Experimental: During stress, the animals were placed in individual cells and exposed to stressful conditions each day for 26 days. Two stressors were used daily, applied in the following order: • Day 1. 10 am-6 pm, rats were placed in a cold room for an hour. From 6 PM to 10 am the lights were turned on and off every 2 hours. • Day 2. 10 am-6 pm, cage tilted to 45°. From 6 PM to 10 am water deprivation. • Day 3. 10 am-6 pm, stroboscopic light. From 6 PM to 10 am the light was left on overnight. • Day 4. 10 am-6 pm, wet bedding. From 6 PM to 10 am the animals were put in a small mouse cage. • Day 5. 10 am-6 pm, no bedding. From 6 PM to 10 am the lights were turned on and off every 2 hours. • Day 6. 10 am-6 pm, a new rat was placed in the cage (6-month-old). From 6 PM to 10 am the light was left on overnight. • Day 7. 10 am-6 pm, white noise. From 6 PM to 10 am a stroboscopic light was turned on at night. • Day 8-26. Repetition of previously used stressors in the specified sequence.
Experimental substances were administered daily starting from the 58-59 day of the experiment. […]
To assess the social activity and depressive state of the animals, a test that evaluates a social interaction of rodents was used. […] Within 10 minutes the duration and number of social contacts with the juvenile male and number of threatening and aggressive contacts were recorded. […]

BALB/C mice = assay: Elevated Plus Maze test in mice; details: ip, Diazepam 0.75 mg/kg
Experimental: After an adaptation period, the test substance was intraperitoneally injected into mice. Behavioral parameters were measured in 30 minutes after injection. The tests were administered as follows: day 1—the Open field test, day 3—the Elevated plus maze test, day 5—the Marble burying test, days 12-13—the Porsolt swim (two-day modification) test.
In the elevated plus maze test, a test arena includes two open and two closed arms crossed in the middle. The arm length is 30 cm, the height of the closed arms side walls is 15 cm. The entire installation is raised 70 cm above the floor. The open arms have bright uniform illumination of about 400 lux, and the closed arms have illumination of about 30-40 lux. Mice were placed at the junction of the four arms of the maze (center), facing an open arm. The following behavioral parameters were automatically registered by the EthoVision, Noldus program within 5 minutes of the experiment: a total distance (cm), a time of motion (if the speed is more than 5 cm/s), an immobility (if the speed is less than 0.2 cm/sec), a mean and maximum velocity, and the number of episodes of motor activity and “freezing”. The same set of parameters, as well as a latent period and the duration of stay, were measured for the central sector, open and closed arms separately. (Manufactured by OpenScience, Russia).
All substances were injected intraperitoneally in a volume of 10 μl of solution per 1 gram of animal weight 30 minutes prior to behavioral testing.
The second group of parameters includes a time on open arms (in seconds) (FIG. 35), a number of open arms entries (FIG. 36), a number of risk behavior (number of rearings and dangle events, as shown in FIG. 37]), and an anxiety index (FIG. 38). The anxiety index (AI) was calculated using the following formula: AI=100*(1−(time on open arms/total test time+open arms entries/total number of entries)/2)

zebrafish (Danio rerio) [3] = assay: Light/dark box test in zebrafish; details: ip
Experimental: as §1, §2
The light/dark box (LDB) test was performed as described in Maximino et al., 2011. The zebrafish was placed in a light compartment of an LDB using a net, the camera was switched on simultaneously, and the behavior of the zebrafish was recorded for 5 minutes. The video was processed using RealTimer (OpenScience). During the processing of records, the residence time and the number of visits to the light and dark compartments of the test setup were recorded, as well as the latent period of visiting both compartments.

SMILES: CN1C(=O)CN=C(c2ccccc2)c2cc(Cl)ccc21 [Diazepam]
- distance covered during the open field test (zebrafish (Danio rerio) [1]; diazepam 10 mg/kg): tended to cover a smaller distance
- average distance covered / track length (locomotor activity) (zebrafish (Danio rerio) [1]; diazepam 1.25, 5, 10, fluvoxamine 5, 10, ACZ-10 0.6, BCM-7 5, FQSE 1 and 10, DKTE 1, WDQV 10 mg/kg): did not demonstrate any significant effects
- behavior in the open field test (zebrafish (Danio rerio) [1]; diazepam 1.25 and 5 mg/kg): No effects
- duration of social contacts [2]: significant decrease
- Time on open arms (BALB/C mice; FQSE 20 mg/kg): 67.4 ± 18.43 s
- Open arms entries (BALB/C mice; FQSE 1 mg/kg): 6.5±0.99
- The number of risk behavior (BALB/C mice; FQSE 1 mg/kg): 15±2.8
- total distance (BALB/C mice; FQSE 1 mg/kg): 1219±91.4 cm
- time spent in the light compartment (zebrafish (Danio rerio) [3]; diazepam 5 mg/kg, FQSE 10 mg/kg, WDQV 10 mg/kg): increased dramatically
- number of transitions between the light and dark compartments (zebrafish (Danio rerio) [3]; diazepam 10 mg/kg): increase
- time of the first exit (latent period) to the light chamber (zebrafish (Danio rerio) [3]; diazepam 10 mg/kg): decrease
